Structures are written as SMILES.

Series [1] concerns human Notch 1. Kind of series: Notch-CBF1 Transactivation Assay (Notch 1). The format is cell-based. As to conditions: read-out: Notch 1 (IC50); HeLa cells transfected with truncated Notch 1 and CBF1 luciferase reporter; 18 hours; average of N experiments. From the text:
(§1) Notch-CBF1 Transactivation Assay
(§2) The Notch-CBF1 (C-promoter binding factor I) cell based transactivation assay is based on the ability of the released Notch intracellular domain fragments (NICDs) to function as transcription factors in conjunction with CBF1 and other nuclear factors. Luciferase assays were used to measure the antagonism of Notch-CBF1 transcriptional activity. HeLa cervical cancer cells are transiently co-transfected with pCDNA3.1/Hygro plasmids containing truncated Notch 1, Notch 2, Notch 3, or Notch 4 receptors and a PGL3 luciferase reporter vector containing 4 copies of CBF1 binding site. The cells were then tested for Notch-CBF1 activity in the absence or presence of test compounds. HeLa cells, maintained in DMEM (high glucose with HEPES), 1× glutamine/penicillin/streptomycin and 10% Fetal Bovine serum, were transiently transfected in a T175 Flask (4.5×10^6 cells/flask) using the Monster Transfection Kit (Minis #MIR2906) according to manufacturers specifications. Table 5 denotes respective DNA quantity for the transfections.
(§3) Assay media (5 μL) containing test compounds in final concentrations ranging from 5 μM to 8.4×10^−5 μM (3 fold serial dilutions) were added to the cells and the cell plates were then incubated for 18 hours at 37° C. and 5% CO2. Control wells contained DMSO vehicle (total counts) or 0.5 μM of an in-house small molecule inhibitor (background counts). Duplicates were used for each sample. Luciferase activity was measured after a 20-minute incubation with 50 μl STEADY-GLO® luciferase reagents according to manufacturer's specifications (Promega, Cat. #E2550) and analyzed by Envision plate reader (PerkinElmer, Boston, Mass.).
(§4) The antagonist effect of compounds was expressed as 100×[1−(average sample−average background)/(average total−average background)] where sample is the luciferase activity in the presence of test compound, background is equal to the luciferase activity in the presence of the small molecule inhibitor control and the total is signal induced in DMSO wells.

Series [2] can be described thus: Human metabolic stability half-life assay. As to conditions: human liver microsomes, NADPH, 0.5 μM compound, 45-minute time course; for half-life at 0.5 µM: pH 7.4, read-out: HLM (t1/2, min). The format is in vitro ADME. An excerpt:
Metabolic Stability Half-Life Panel
In general terms: Microsomes from liver hold many membrane-bound enzymes, among them those of drug oxidation.

Series [3] relates to human Notch 3. Briefly: Notch-CBF1 Transactivation Assay (Notch 3). In kind it is cell-based. To be noted: read-out: Notch 3 (IC50); HeLa cells transfected with truncated Notch 3 and CBF1 luciferase reporter; 18 hours; average of N experiments.
Excerpt: as §1, §2, §3, §4

Turning to `NC(=O)[C@@H](C1CC(F)(F)C1)[C@@H](CCC(F)(F)F)C(=O)N[C@H]1N=C(c2ccccc2)c2ccccc2NC1=O` [Example 6], the IC50 in series [1] came out at 14 nM; in series [3], 18.9 nM. Moreover, the half-life at 0.5 µM in series [2] is > 120 min.
On to `NC(=O)[C@@H](C1CCC(F)(F)CC1)[C@@H](CCC(F)(F)F)C(=O)N[C@H]1N=C(c2cccc(F)c2)c2cccc(OC3CC3)c2NC1=O` [Example 3, (2R,3S)—N-((3S)-9-(Cyclopropyloxy)-5-(3-fluorophenyl)-2-oxo-2,3-dihydro-1H-1,4-benzodiazepin-3-yl)-3-(4,4-difluorocyclohexyl)-2-(3,3,3-trifluoropropyl)succinamide], for which the IC50 in series [1] turned out to be 4.2 nM; in series [3], 8.9 nM. The half-life at 0.5 µM in series [2] was found to be 80 min.
On to `COc1ccc2c(c1)NC(=O)[C@@H](NC(=O)[C@H](CCC(F)(F)F)[C@H](CCCF)C(N)=O)N=C2c1ccccc1` [Example 17, (2R,3S)-3-(3-Fluoropropyl)-N-((3S)-8-methoxy-2-oxo-5-phenyl-2,3-dihydro-1H-1,4-benzodiazepin-3-yl)-2-(3,3,3-trifluoropropyl)succinamide], for which the 50% inhibitory concentration (IC50) stood at 5.8 nM in series [1] and 11 nM in series [3]. Besides, in series [2], the half-life at 0.5 µM was > 120 min.
On to `NC(=O)[C@@H](CC1CC(F)(F)C1)[C@@H](CCC(F)(F)F)C(=O)N[C@H]1N=C(c2ccccc2)c2cccc(Cl)c2NC1=O` [Example 13, (2R,3S)—N-((3S)-9-Chloro-2-oxo-5-phenyl-2,3-dihydro-1H-1,4-benzodiazepin-3-yl)-3-((3,3-difluorocyclobutyl)methyl)-2-(3,3,3-trifluoropropyl)succinamide], for which the IC50 in series [1] was 2.8 nM; in series [3], 2.4 nM. Also, in series [2], the half-life at 0.5 µM is > 120 min.
Consider `CCC[C@H](C(N)=O)[C@@H](CC(C)C)C(=O)N[C@H]1N=C(c2ccccc2)c2ccccc2N(C)C1=O` [Comparative Compound 26, reference compound], for which, in series [2], the “HLM (t1/2, min)” value is reported as 8 min.
Consider `C=CC[C@H](C(N)=O)[C@@H](CC(C)C)C(=O)N[C@H]1N=C(c2ccccc2)c2cc(Cl)ccc2N(C)C1=O` [Comparative Compound 27, reference compound], for which the “HLM (t1/2, min)” value in series [2] is 6 min.
Take `COc1cccc2c1NC(=O)[C@@H](NC(=O)[C@H](CCC(F)(F)F)[C@H](CCC(C)(F)F)C(N)=O)N=C2c1ccccc1` [Example 21]: the IC50 in series [1] worked out at 7.5 nM; in series [3] it was 13.8 nM. The half-life at 0.5 µM in series [2] was determined as 76 min.
For `CC(F)(F)C[C@H](C(N)=O)[C@@H](CCC(F)(F)F)C(=O)N[C@H]1N=C(c2ccccc2)c2ccccc2NC1=O` [Example 18, (2R,3S)-3-(2,2-Difluoropropyl)-N-((3S)-2-oxo-5-phenyl-2,3-dihydro-1H-1,4-benzodiazepin-3-yl)-2-(3,3,3-trifluoropropyl)succinamide], the IC50 in series [1] was found to be 2.7 nM; in series [3], 10.8 nM. Also, the half-life at 0.5 µM in series [2] was > 120 min.
For `NC(=O)[C@@H](C1CCC(C(F)(F)F)CC1)[C@@H](CCC(F)(F)F)C(=O)N[C@H]1N=C(c2ccccc2)c2cccc(Cl)c2NC1=O` (stereo partly drawn) [Example 4, (2R,3S)—N-((3S)-9-Chloro-2-oxo-5-phenyl-2,3-dihydro-1H-1,4-benzodiazepin-3-yl)-3-(4-(trifluoromethyl)cyclohexyl)-2-(3,3,3-trifluoropropyl)succinamide], the half-inhibitory concentration (IC50) in series [1] worked out at 11.9 nM; in series [3], 21.2 nM. In series [2], the half-life at 0.5 µM was > 120 min.
As to `CCCC[C@H](C(N)=O)[C@@H](CC(C)C)C(=O)N[C@H]1N=C(c2ccc(Cl)cc2)c2ccccc2N(C)C1=O` [Comparative Compound 28, reference compound], the “HLM (t1/2, min)” value in series [2] was found to be 6 min.
`Cc1cccc2c1NC(=O)[C@@H](NC(=O)[C@H](CCC(F)(F)F)[C@H](CC1CC(F)(F)C1)C(N)=O)N=C2c1cccc(F)c1` [Example 9, (2R,3S)-3-((3,3-Difluorocyclobutyl)methyl)-N-((3S)-5-(3-fluorophenyl)-9-methyl-2-oxo-2,3-dihydro-1H-1,4-benzodiazepin-3-yl)-2-(3,3,3-trifluoropropyl)succinamide]: the half-maximal inhibitory concentration (IC50) in series [1] came out at 3.5 nM; in series [3], 3.2 nM. Further, in series [2], the half-life at 0.5 µM is 91 min.
`Cc1cccc2c1NC(=O)[C@@H](NC(=O)[C@H](CCC(F)(F)F)[C@H](CC1(F)CCC1)C(N)=O)N=C2c1ccccc1` [Example 25, (2R,3S)-3-((1-Fluorocyclobutyl)methyl)-N-((3S)-9-methyl-2-oxo-5-phenyl-2,3-dihydro-1H-1,4-benzodiazepin-3-yl)-2-(3,3,3-trifluoropropyl)succinamide]: the IC50 in series [1] was 3.8 nM; in series [3], 20.1 nM. The half-life at 0.5 µM in series [2] is 33 min.
The corresponding values for `COc1cccc2c1NC(=O)[C@@H](NC(=O)[C@H](CCC(F)(F)F)[C@H](CC1CC(F)(F)C1)C(N)=O)N=C2c1ccccc1` [Example 8, (2R,3S)-3-((3,3-Difluorocyclobutyl)methyl)-N-((3S)-9-methoxy-2-oxo-5-phenyl-2,3-dihydro-1H-1,4-benzodiazepin-3-yl)-2-(3,3,3-trifluoropropyl)succinamide] are 2.9 nM, 4 nM and 58 min.
Turning to `NC(=O)[C@@H](CC1CC(F)(F)C1)[C@@H](CCC(F)(F)F)C(=O)N[C@H]1N=C(c2ccccc2)c2cccc(C3CC3)c2NC1=O` [Example 12, (2R,3S)—N-((3S)-9-Cyclopropyl-2-oxo-5-phenyl-2,3-dihydro-1H-1,4-benzodiazepin-3-yl)-3-((3,3-difluorocyclobutyl)methyl)-2-(3,3,3-trifluoropropyl)succinamide], the IC50 stood at 5.6 nM in series [1] and 4.3 nM in series [3]. Further, the half-life at 0.5 µM in series [2] is 41 min.
As for `CC(F)(F)CC[C@H](C(N)=O)[C@@H](CCC(F)(F)F)C(=O)N[C@H]1N=C(c2ccccc2)c2cccc(Cl)c2NC1=O` [Example 24, (2R,3S)—N-((3S)-9-Chloro-2-oxo-5-phenyl-2,3-dihydro-1H-1,4-benzodiazepin-3-yl)-3-(3,3-difluorobutyl)-2-(3,3,3-trifluoropropyl)succinamide], the IC50 in series [1] came out at 3.9 nM; in series [3], 5.4 nM. In series [2], the half-life at 0.5 µM is > 120 min.
For the compound `C[C@@H](C[C@H](C(N)=O)[C@@H](CCC(F)(F)F)C(=O)N[C@H]1N=C(c2ccccc2)c2cccc(F)c2NC1=O)C(F)(F)F` [Example 19, (2R,3S)—N-((3S)-9-Fluoro-2-oxo-5-phenyl-2,3-dihydro-1H-1,4-benzodiazepin-3-yl)-3-((2S)-3,3,3-trifluoro-2-methylpropyl)-2-(3,3,3-trifluoropropyl)succinamide], the IC50 was found to be 2.9 nM in series [1] and 2.4 nM in series [3]. The half-life at 0.5 µM in series [2] came to 80 min.
The corresponding values for `NC(=O)[C@@H](CC1CC(F)(F)C1)[C@@H](CCC(F)(F)F)C(=O)N[C@H]1N=C(c2ccccc2)c2cccc(F)c2NC1=O` [Example 14, (2R,3S)-3-((3,3-Difluorocyclobutyl)methyl)-N-((3S)-9-fluoro-2-oxo-5-phenyl-2,3-dihydro-1H-1,4-benzodiazepin-3-yl)-2-(3,3,3-trifluoropropyl)succinamide] are 4.5 nM, 1.4 nM and > 120 min.
The corresponding values for `NC(=O)[C@@H](CC1CC(F)(F)C1)[C@@H](CCC(F)(F)F)C(=O)N[C@H]1N=C(c2ccccc2)c2cccc(OC3CC3)c2NC1=O` [Example 7, (2R,3S)—N-((3S)-9-(Cyclopropyloxy)-2-oxo-5-phenyl-2,3-dihydro-1H-1,4-benzodiazepin-3-yl)-3-((3,3-difluorocyclobutyl)methyl)-2-(3,3,3-trifluoropropyl)succinamide] are 3.9 nM, 2.1 nM and > 120 min.
The corresponding values for `NC(=O)[C@@H](C1CCC(F)(F)CC1)[C@@H](CCC(F)(F)F)C(=O)N[C@H]1N=C(c2ccccc2)c2cccc(Cl)c2NC1=O` [Example 5, (2R,3S)—N-((3S)-9-Chloro-2-oxo-5-phenyl-2,3-dihydro-1H-1,4-benzodiazepin-3-yl)-3-(4,4-difluorocyclohexyl)-2-(3,3,3-trifluoropropyl)succinamide] are 4.4 nM, 7.3 nM and 72 min.
`C=CC[C@H](C(N)=O)[C@@H](CC(C)C)C(=O)N[C@H]1N=C(c2ccccc2)c2ccccc2N(CCC)C1=O` [Comparative Compound 29, reference compound]: the “HLM (t1/2, min)” value in series [2] stood at 3 min.

Usually IC50 stands for the concentration at which inhibition is half-maximal.
